In patent publication US7176219B2, “Salts of quinuclidine derivative” (priority 2005, dated 2007):

What was measured:
muscarinic M3 receptors [1] = target: muscarinic M3 receptors (Homo sapiens, UniProt P20309); conditions: made public in Patent document 1 (EP 0 801 067); cited from earlier work
[2] = Evaluation of stability (2): stress testing, impurities by LC, UV at 210 nm; type: physicochemical
Procedure: A sample (about 5 mg) was weighed in a glass mess-flask of 10 mL and applied to a stress testing in the following storage conditions. • Condition 1: 5° C.—shading—tightly closed • Condition 2: 40° C.—relative humidity 75%—open • Condition 3: 60° C.—shading—tightly closed • Condition 4: 80° C.—shading—tightly closed • Condition 5: 25° C.—D65 (1000 lux)—tightly closed
Chemical stability: After storage, MeOH was placed in the mess-flask containing the sample up to the level of the marked line, and the resulting solution was used as a sample solution. The sample solution was diluted 100 times with MeOH to prepare a standard solution, which was used in determination of impurities contained in the sample solution. Detection of the impurities was performed by means of UV at 210 nm. […] (Apparatus: LC-MSD 1100 series, made by Agilent)

[3] = Evaluation of hygroscopicity (dynamic steam adsorption, weight change); type: physicochemical; conditions: for Weight Change (%): within the range 5–95% relative humidity; for Deliquescence during water absorption measurement: 5–95% relative humidity
Procedure: A sample (about 5 mg) was placed in a purpose-made quartz holder, and the sample weight at the respective humidity was continuously measured and recorded in the following conditions. The apparatus including data processing was operated according to the method and procedure directed in each device. (Apparatus: dynamic steam adsorption measuring apparatus DVS Advantage, made by SMS)

[4] = Evaluation of stability (1): forced degradation test, impurities by LC; conditions: for Change from Impurity Amt. before Storage (%), Condition 3 / Change from Impurity Amt. before Storage (%), Condition 2: 25° C., 5 days; for Change from Impurity Amt. before Storage (%), Condition 3: NUV (near ultraviolet ray) irradiated; for Change from Impurity Amt. before Storage (%), Condition 3 / Change from Impurity Amt. before Storage (%), Condition 1: tightly closed; for Change from Impurity Amt. before Storage (%), Condition 2: relative humidity 93%, open; for Change from Impurity Amt. before Storage (%), Condition 1: 120° C., 24 hours
Procedure: A sample after storage was dissolved in 1 mL of MeOH and used as a sample solution. The sample solution was diluted 100 times with MeOH and used as a standard solution. Impurities contained in the sample solution was quantitatively analyzed using the standard solution. In this determination, the apparatus including data processing was operated according to the method and procedure directed in each device. (Apparatus: LC-MSD 1100 series, made by Agilent)

[5] = system: carbachol-evoked bladder contraction; assay: Inhibitory effects on carbachol-evoked bladder contraction in anesthetized mice; type: in vivo; conditions: anesthetized female mice, i.v., carbachol 10 μg/kg, intravesical pressure
Procedure: The method for determination of inhibitory effects of test compounds on bladder contraction is described as follows.
Female mice, weighing 30 to 35 g, were anesthetized with a sub-lethal dose (75 mg/kg, i.v.) of sodium pentobarbital and placed supine on a heating pad to maintain the body temperature. A polyethylene catheter (PE10) was cannulated to the bladder via the urethra and secured by purse-string suture at the external urethral opening. Another catheter was inserted into the femoral vein for injections of drug solutions at a […]. The bladder catheter was connected to a pressure transducer through a three-way stopcock valve. The bladder was emptied by drainage of urine through the catheter, and then distended with about 100 μL of physiological saline, and the intravesical pressure was measured.
After intravesical pressure stabilization, the muscarinic agonist carbachol (10 μg/kg) was administered repeatedly with an interval of 15 minutes or longer. By this means, bladder contractions occurred in a reproducible manner over 2 hours without deterioration of physical conditions. After three responses to carbachol were obtained, a test compound injection was followed by carbachol administration 10 minutes later and this procedure was repeated with increasing doses of the test compound. In four or five mice per test compound, the percent inhibition of means of prior drug responses was obtained and the dose of test compound required for 50% inhibition (ID50) was estimated by the linear regression analysis. Mice showing rhythmic bladder constriction were not used for the data analysis.

muscarinic M3 receptors [6] = target: T1, muscarinic M3 receptors (Cavia porcellus, UniProt H0W1Z3); assay: Functional affinity estimate for muscarinic M3 receptors in bladders (carbachol-induced intracellular Ca2+ change in bladder smooth muscle cells); type: cell-based, guinea pig
T1 construct: Smooth muscle cells were isolated from guinea pig bladders; from tissue; host or cells: smooth muscle cells freshly isolated from guinea pig bladder
T1 sequence (H0W1Z3 1-590): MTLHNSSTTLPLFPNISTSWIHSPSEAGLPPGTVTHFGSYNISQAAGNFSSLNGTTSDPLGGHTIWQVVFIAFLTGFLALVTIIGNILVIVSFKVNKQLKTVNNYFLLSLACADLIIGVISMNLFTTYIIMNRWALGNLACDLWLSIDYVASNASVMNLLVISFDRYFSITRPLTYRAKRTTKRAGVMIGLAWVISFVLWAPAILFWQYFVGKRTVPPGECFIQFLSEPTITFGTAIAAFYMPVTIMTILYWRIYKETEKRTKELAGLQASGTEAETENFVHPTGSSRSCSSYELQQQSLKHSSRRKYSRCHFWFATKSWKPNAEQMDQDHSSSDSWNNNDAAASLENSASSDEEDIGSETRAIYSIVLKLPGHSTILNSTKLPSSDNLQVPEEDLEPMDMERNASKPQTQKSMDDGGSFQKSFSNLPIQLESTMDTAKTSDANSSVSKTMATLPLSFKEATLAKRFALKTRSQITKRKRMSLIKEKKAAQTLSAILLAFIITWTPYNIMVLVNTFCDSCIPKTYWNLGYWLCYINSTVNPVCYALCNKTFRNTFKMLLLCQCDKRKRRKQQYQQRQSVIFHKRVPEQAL
Procedure: Below, the method is described in brief.
Smooth muscle cells were isolated from guinea pig bladders from which the […] had been removed, loaded with a calcium-sensitive fluorescent dye Fura2 and suspended in phenol red-free Hanks' buffer solution supplemented with 20 mM HEPES (pH 7.4) and 0.1% bovine serum albumin. An aliquot of cell suspension (490 μL) was continuously stirred, kept at 28° C. and monitored for the ratio of fluorescence (500 nm) at 340 nm excitation to that at 380 nm excitation. To each aliquot, 5 μL of test compound and carbachol solutions were serially added with a 2 minute interval, and the peak increase in the ratio over the level just before stimulation was used in data analysis.

[7] = Hygroscopicity and long-term storage of the known hydrochloride (disclosure section); type: physicochemical
[8] = Condition 1: 5° C., shading, tightly closed, 1 month
[9] = Condition 1: 5° C., shading, tightly closed, 2 months
[10] = Condition 1: 5° C., shading, tightly closed, 2 weeks
[11] = Condition 2: 40° C., relative humidity 75%, open, 1 month
[12] = Condition 2: 40° C., relative humidity 75%, open, 2 months
[13] = Condition 2: 40° C., relative humidity 75%, open, 2 weeks
[14] = Condition 3: 60° C., shading, tightly closed, 1 month
[15] = Condition 3: 60° C., shading, tightly closed, 2 months
[16] = Condition 3: 60° C., shading, tightly closed, 2 weeks
[17] = Condition 4: 80° C., shading, tightly closed, 1 month
[18] = Condition 4: 80° C., shading, tightly closed, 2 months
[19] = Condition 4: 80° C., shading, tightly closed, 2 weeks
[20] = Condition 5: 25° C., D65 (1000 lux), tightly closed, 1 month
[21] = Condition 5: 25° C., D65 (1000 lux), tightly closed, 2 months
[22] = Condition 5: 25° C., D65 (1000 lux), tightly closed, 2 weeks
[23] = 25° C., listed as Compound A hydrochloride, hydrochloride

Chain of muscarinic M3 receptors (Homo sapiens, UniProt P20309) (P20309 whole entry): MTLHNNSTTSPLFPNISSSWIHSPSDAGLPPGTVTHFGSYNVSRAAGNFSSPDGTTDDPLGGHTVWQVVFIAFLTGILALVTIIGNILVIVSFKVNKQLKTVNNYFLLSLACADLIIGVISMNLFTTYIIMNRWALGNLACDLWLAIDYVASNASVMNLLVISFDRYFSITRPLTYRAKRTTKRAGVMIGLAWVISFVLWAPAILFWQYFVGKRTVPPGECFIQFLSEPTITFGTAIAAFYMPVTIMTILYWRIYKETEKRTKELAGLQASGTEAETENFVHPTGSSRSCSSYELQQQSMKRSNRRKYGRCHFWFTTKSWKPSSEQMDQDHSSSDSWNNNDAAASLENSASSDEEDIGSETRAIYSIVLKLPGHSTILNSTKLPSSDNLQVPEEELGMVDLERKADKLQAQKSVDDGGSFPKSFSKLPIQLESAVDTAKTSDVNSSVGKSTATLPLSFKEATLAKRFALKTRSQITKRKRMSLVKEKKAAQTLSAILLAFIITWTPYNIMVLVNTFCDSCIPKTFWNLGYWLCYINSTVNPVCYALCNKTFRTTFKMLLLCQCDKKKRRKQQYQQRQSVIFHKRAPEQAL

| Structure (SMILES) | Impurities (%) [2, 8] [%] | Impurities (%) [2, 9] [%] | Impurities (%) [2, 10] [%] | Impurities (%) [2, 11] [%] | Impurities (%) [2, 12] [%] | Impurities (%) [2, 13] [%] | Impurities (%) [2, 14] [%] | Impurities (%) [2, 15] [%] | Impurities (%) [2, 16] [%] | Impurities (%) [2, 17] [%] | Impurities (%) [2, 18] [%] | Impurities (%) [2, 19] [%] | Impurities (%) [2, 20] [%] | Impurities (%) [2, 21] [%] | Impurities (%) [2, 22] [%] | Change from Impurity Amt. before Storage (%), Condition 3 [4] [%] | Change from Impurity Amt. before Storage (%), Condition 2 [4] [%] | Change from Impurity Amt. before Storage (%), Condition 1 [4] [%] | Impurities before Storage (%) [4] [%] | further results |
| --- | --- | --- | --- | --- | --- | --- | --- | --- | --- | --- | --- | --- | --- | --- | --- | --- | --- | --- | --- | --- |
| O=C(O[C@H]1CN2CCC1CC2)N1CCc2ccccc2[C@H]1c1ccccc1 [Compound A, (−)-(3R)-quinuclidin-3-yl(1R)-1-phenyl-1,2,3,4-tetrahydroisoquinoline-2-carboxylate] | – | – | – | – | – | – | – | – | – | – | – | – | – | – | – | – | – | – | – | Affinity and selectivity for muscarinic M3 receptors (muscarinic M3 receptors [1]): displays an affinity and selectivity for muscarinic M3 receptors |
| O=C(O[C@H]1CN2CCC1CC2)N1CCc2ccccc2[C@H]1c1ccccc1 [Example 1, (−)-(3R)-quinuclidin-3-yl(1R)-1-phenyl-1,2,3,4-tetrahydroisoquinoline-2-carboxylate (−)-(2S,3S)-tartrate] | 0.00 | 0.00 | 0.00 | 0.00 | 0.00 | 0.00 | 0.00 | 0.00 | 0.00 | 0.00 | 0.00 | 0.00 | 0.00 | 0.00 | 0.00 | −0.3 | −0.1 | 0.2 | 1.5 | Weight Change (%) ([3]; 25° C.): <1%; ID50 (dose required for 50% inhibition of bladder contraction) [5]: 0.079 mg/kg; IC50 (muscarinic M3 receptors [6]; IC50 (ng/mL), inhibition of carbachol-induced Ca2+ increase, guinea pig bladder smooth muscle cells, Fura2): 6.62 nM; Ki (muscarinic M3 receptors [6]; Ki (nM), IC50 converted by Cheng-Prusoff equation based on EC50 of carbachol): 0.68 ± 0.21 nM |
| Cl.O=C(O[C@H]1CN2CCC1CC2)N1CCc2ccccc2[C@@H]1c1ccccc1 [Reference Example 2, Compound A hydrochloride, reference compound] | 0.21 | 0.18 | 0.25 | 8.19 | 9.20 | 8.72 | 0.22 | 0.24 | 0.34 | 0.39 | 0.47 | 0.43 | 2.38 | 3.68 | 1.73 | 2.0 | 3.8 | 0.2 | 0.1 | Impurities during long-term storage ([7]; long-term storage): increase of impurities during long-term storage; Hygroscopicity in a conventional environment ([7]; relative humidity of 70% (room temperature)): so hygroscopic as to deliquesce; Deliquescence during water absorption measurement ([3]; 25° C., hydrochloride): deliquescent; Deliquescence during water absorption measurement [3, 23]: accompanied by deliquescence; Relative humidity at which rapid moisture uptake began ([3]; 25° C., FIG. 1): about 65 % relative humidity; Weight Change (%) ([3]; 25° C., hydrochloride): > 35%; Weight Change (%) [3, 23]: exceeded 35%; Weight gain by absorption of moisture ([3]; at 75% or more relative humidity): ≥ 15%; Stability to humidity ([4]; Condition 2 in Test Example 2 and Condition 2 in Test Example 3): not so stable to humidity; Stability to light ([4]; Condition 3 in Test Example 2 and Condition 5 in Test Example 3): not so stable; Increase of impurities during storage ([4]; Table 2 and Table 3): impurities increased during storage |
